The subject of data set [1] is influenza A/Swine/Iowa/30 (H1N1) virus. It is filed as cell-based. As to conditions: for Antiviral activity relative to oseltamivir (Tamiflu): concentrations corresponding to 1/2 of CC50; for Efficacy relative to commercially available oseltamivir: at similar or lower concentrations.
The nature of data set [2]: Cytotoxicity in vitro, MTT test on MDCK cell culture. As to conditions: dog. (Tetrazolium dyes change colour on reduction, which living cells bring about.)
The nature of data set [3]: in vitro. The conditions noted are these: dog.

Converted amounts (≈) assume the structure as drawn. “Also recorded” adds a separate entry of the source. Structures can show the parent of a compound that is named as a salt. Where two headings read alike, the source gives them in different places.

Turning to `CCCN1CCC(O)(C(=O)O)CC1` [3b, Hydrochloride of 1-propyl-4-carboxy-4-hydroxypiperidine], the “Titre in HAU” value is listed as 5.0 ± 0 log2 in data set [1] (0.15 mg/mL, PC titre 5.0 ± 0); 5.0 ± 0 log2 in data set [1] (0.30 mg/mL, PC titre 5.0 ± 0); 5.0 ± 0 log2 in data set [1] (0.59 mg/mL, PC titre 5.0 ± 0); 5.0 ± 0 log2 in data set [1] (1.19 mg/mL, PC titre 5.0 ± 0); 4.4 ± 0.6 log2 in data set [1] (2.38 mg/mL, PC titre 5.0 ± 0); 4.0 ± 0 log2 in data set [1] (4.75 mg/mL, PC titre 5.0 ± 0). Further, the “Reduction of virus replication” value in data set [1] (4.75 mg/mL (maximum tested concentration)) is 1.0 log2. The “Antiviral activity relative to oseltamivir (Tamiflu)” value in data set [1] is given as “slightly inferior; also recorded: significantly lower antiviral activity”. In data set [2], this molecule returned a CC50 at 72 h of 9500 ± 364 µg/mL.
For `O=C(OC1(C(=O)O)CCN(Cc2ccccc2)CC1)C1CC1` [5c, Hydrochloride of 1-benzyl-4-cyclopropanoyloxy-piperidine-4-carboxylic acid], the “Titre in HAU” value in data set [1] (0.058 mg/mL, PC titre 5.0 ± 0) was found to be 5.0 ± 0 log2; in data set [1] (0.116 mg/mL, PC titre 5.0 ± 0), 5.0 ± 0 log2; in data set [1] (0.231 mg/mL, PC titre 5.0 ± 0) it was 5.0 ± 0 log2; in data set [1] (0.463 mg/mL, PC titre 5.0 ± 0) it was 5.0 ± 0 log2; in data set [1] (0.925 mg/mL, PC titre 5.0 ± 0), 4.4 ± 0.6 log2; in data set [1] (1.850 mg/mL, PC titre 5.0 ± 0) it was 3.8 ± 1.1 log2. In data set [1] (1.85 mg/mL (maximum investigated concentration)), the “Suppression of virus replication compared to the control group” value turned out to be 1.2 log2. Besides, the “Antiviral effect at the other concentrations tested” value in data set [1] (concentrations below 1.85 mg/mL) was “No statistically significant antiviral effect”. The “Level of antiviral activity relative to rimantadine” value in data set [1] (concentrations equivalent to 1/2 CC50) is reported as “comparable to that of rimantadine”. Moreover, the CC50 at 72 h in data set [2] came out at 3700 ± 189 µg/mL.
Take `O=C(ON=C1CCN(Cc2ccccc2)CC1)c1c(F)cccc1F` [compound 11, Hydrochloride of 1-benzyl-4-(2,6-difluoro-benzoyloxymino) piperidine]: the “Titre in HAU” value stood at 6.0 ± 0 log2 in data set [1] (0.0020 mg/mL, PC titre 6.0 ± 0); 6.0 ± 0 log2 in data set [1] (0.0041 mg/mL, PC titre 6.0 ± 0); 6.0 ± 0 log2 in data set [1] (0.0081 mg/mL, PC titre 6.0 ± 0); 6.0 ± 0 log2 in data set [1] (0.0163 mg/mL, PC titre 6.0 ± 0); 4.0 ± 0 log2 in data set [1] (0.0325 mg/mL, PC titre 6.0 ± 0); 4.0 ± 0 log2 in data set [1] (0.0650 mg/mL, PC titre 6.0 ± 0). Moreover, in data set [1] (0.0650 and 0.0325 mg/mL), the “Inhibition of replication of 100 infectious doses compared to the control group” value is given as 2.0 log2. In data set [1], the “Efficacy relative to commercially available oseltamivir” value is “comparable efficacy”. In data set [1], the “Antiviral activity relative to oseltamivir (Tamiflu)” value is recorded as “slightly inferior”. In data set [2], this molecule showed a CC50 at 72 h of 130 ± 2 µg/mL.
`O=C(OC1CCN(Cc2ccccc2)CC1)c1ccc(C(F)(F)F)cc1` [compound 8, Hydrochloride of 1-benzyl-4-trifluoromethylbenzoyloxy-piperidine]: the “Titre in HAU” value is given as 6.0 ± 0 log2 in data set [1] (0.0011 mg/mL, PC titre 6.0 ± 0); 6.0 ± 0 log2 in data set [1] (0.0022 mg/mL, PC titre 6.0 ± 0); 6.0 ± 0 log2 in data set [1] (0.0044 mg/mL, PC titre 6.0 ± 0); 5.0 ± 0 log2 in data set [1] (0.0088 mg/mL, PC titre 6.0 ± 0); 5.0 ± 0 log2 in data set [1] (0.0175 mg/mL, PC titre 6.0 ± 0); 4.0 ± 0 log2 in data set [1] (0.0350 mg/mL, PC titre 6.0 ± 0). Moreover, the “Reduction of viral load” value is recorded as 2.0 log2 in data set [1] (0.035 mg/mL); 1.0 log2 in data set [1] (0.0175 and 0.0088 mg/mL). Besides, in data set [1], the “Efficacy relative to commercially available oseltamivir” value was “comparable efficacy”. The “Antiviral activity relative to oseltamivir (Tamiflu)” value in data set [1] is on record as “slightly inferior”. In addition, in data set [2], the CC50 at 72 h worked out at 70 ± 5 µg/mL.
As for `CCOC(=O)C1=C[C@@H](OC(CC)CC)[C@H](NC(C)=O)[C@@H](N)C1` [Tamiflu, oseltamivir, reference compound], the “Titre in HAU” value in data set [1] (0.01 mg/mL, PC titre 5.0 ± 0) was 4.0 ± 0 log2; in data set [1] (0.02 mg/mL, PC titre 5.0 ± 0) it was 4.0 ± 0 log2; in data set [1] (0.04 mg/mL, PC titre 5.0 ± 0) it was 3.0 ± 0 log2; in data set [1] (0.08 mg/mL, PC titre 5.0 ± 0), 3.0 ± 0 log2; in data set [1] (0.17 mg/mL, PC titre 5.0 ± 0), 2.4 ± 0.5 log2; in data set [1] (0.33 mg/mL, PC titre 5.0 ± 0) it was 2.4 ± 0.5 log2. Besides, the “Reduction of viral load” value is 1.0 log2 in data set [1] (0.02 and 0.01 mg/mL); 2.0 log2 in data set [1] (0.08 and 0.04 mg/mL). Moreover, the “Reduction in the reproduction of 100 infectious doses of the virus” value in data set [1] (0.33 and 0.17 mg/mL) was 2.6 log2. The CC50 at 72 h in data set [2] is 660 ± 91 µg/mL (≈ 2110 µM).
Consider `CC(N)C12CC3CC(CC(C3)C1)C2` (stereo not shown) [Rimantadine, reference compound], for which the “Titre in HAU” value in data set [1] (0.003 mg/mL, PC titre 6.0 ± 0) was 4.2 ± 0.4 log2; in data set [1] (0.005 mg/mL, PC titre 6.0 ± 0), 4.2 ± 0.4 log2; in data set [1] (0.010 mg/mL, PC titre 6.0 ± 0), 4.2 ± 0.4 log2; in data set [1] (0.020 mg/mL, PC titre 6.0 ± 0), 4.2 ± 0.4 log2; in data set [1] (0.040 mg/mL, PC titre 6.0 ± 0), 4.2 ± 0.4 log2; in data set [1] (0.080 mg/mL, PC titre 6.0 ± 0) it was 4.2 ± 0.4 log2. The molecule also returned a CC50 at 72 h in data set [3] of 160 ± 11 µg/mL (≈ 892 µM).
As for `O=C(OC1(C(=O)O)CCN(CCc2ccccc2)CC1)C1CC1` [5d, Hydrochloride of 1-(2-phenylethyl)-4-cyclopropanoyloxy-piperidine-4-carboxylic acid], the “Titre in HAU” value in data set [1] (0.0025 mg/mL, PC titre 6.0 ± 0) is on record as 6.0 ± 0 log2; in data set [1] (0.0050 mg/mL, PC titre 6.0 ± 0), 6.0 ± 0 log2; in data set [1] (0.0100 mg/mL, PC titre 6.0 ± 0), 6.0 ± 0 log2; in data set [1] (0.0200 mg/mL, PC titre 6.0 ± 0), 6.0 ± 0 log2; in data set [1] (0.0400 mg/mL, PC titre 6.0 ± 0) it was 4.8 ± 0.5 log2; in data set [1] (0.0800 mg/mL, PC titre 6.0 ± 0) it was 4.0 ± 0 log2. Moreover, the “Reduction of virus replication” value in data set [1] (0.04 mg/mL) is 1.2 log2; in data set [1] (0.08 mg/mL), 2.0 log2. Moreover, in data set [1], the “Antiviral activity relative to oseltamivir (Tamiflu)” value was “slightly inferior”. The same molecule had a CC50 at 72 h in data set [2] of 160 ± 6 µg/mL.

These data come from PMC12196486, “Search for Antiviral Preparations in Series of New Derivatives of N-Substituted Piperidines” (Molecules, 2025).
